Measurements as given in PMC7215373, “Design, Synthesis, and Anticancer Evaluation of Novel Indole Derivatives of Ursolic Acid as Potential Topoisomerase II Inhibitors” (International Journal of Molecular Sciences, 2020).

Tests used:
Human Topoisomerase IIα = biological target: T1, Human Topoisomerase IIα (Homo sapiens, UniProt P11388); experiment: Topoisomerase II relaxation assay (supercoiled pBR322); assay type: biochemical; settings: for inhibition at 20 µM: 20 μM compound, read-out: Topo II Inhibition (%) 20 μM; for inhibition at 100 µM: 100 μM compound, read-out: Topo II Inhibition (%) 100 μM
T1 construct: purchased USB, Affymetrix, Waltham, MA, USA
Protocol: The effect of the tested compounds on Topo I and II activities were evaluated by Topo I/II relaxation assays. The reaction products, relaxed DNA could be distinguished from supercoiled DNA by gel electrophoresis and visualized using gel imaging system. Human Topoisomerase IIα activity was detected by measuring the relaxation of supercoiled pBR322 plasmid DNA [22]. […] For inhibition studies, the compounds were pre-incubated with human Topo IIα and DNA for 15 min. Compounds were used at the appropriate concentrations by dissolving in 2% (v/v) DMSO. DMSO didn't show detrimental effect on the enzyme activity at concentration up to 2% (v/v). Reaction mixture was incubated at 37 °C for 30 min and stopped by the addition of 7 mM EDTA. Reaction product was mixed with DNA loading dye and electrophoresed on 1% TAE-Agarose. The gel was stained with ethidium bromide (0.5 μg/mL) for 30 min, destained twice in 1× TAE buffer, and then visualized using a BIO-RAD Gel Doc XR+ System. Etoposide (VP-16) was co-assayed as a positive control.

HepG2 cells = experiment: MTT cytotoxicity assay, HepG2; assay type: cell-based, human; settings: 48 h exposure
Protocol: (§1) The in vitro cytotoxic activities of synthesized compounds were evaluated against two human hepatocarcinoma cell lines (SMMC-7721 and HepG2) and the human normal hepatocyte cell line (LO2) via MTT assay. All tested compounds were dissolved in DMSO and the stock solutions were diluted by DMEM medium before treatment of the cultured cells. […] Cell lines were obtained from American Tissue Culture Collection (ATCC). Briefly, different tumor cells were grown in DMEM medium supplemented with 10% fetal bovine serum, penicillin (100 U/mL), and streptomycin (50 μg/mL). Cells were harvested at log phase of growth and seeded in 96-well plates (100 μL/well at a density of 2 × 10^5 cells/mL). After 24 h incubation at 37 °C and 5% CO2 to allow cell attachment, cultures were exposed to various concentrations of the isolated compounds for 48 h. Finally, MTT solution (2.5 mg/mL in PBS) was added (40 μL/well). Plates were further incubated for 4 h at 37 °C, and the formazan crystals formed were dissolved by adding 150 μL/well of DMSO. Absorption at 570 nm was measured with an ELISA plate reader. […] Doxorubicin, camptothecin, and etoposide (VP-16) were co-assayed as positive controls.

SMMC-7721 cells = experiment: MTT cytotoxicity assay, SMMC-7721; assay type: cell-based, human; settings: 48 h exposure
Protocol: as §1

DNA topoisomerase I = biological target: T2, DNA topoisomerase I (Bos taurus, UniProt F1MN93); experiment: Topoisomerase I relaxation assay (supercoiled pBR322); assay type: biochemical; settings: for inhibition at 20 µM: 20 μM compound, read-out: Topo I Inhibition (%) 20 μM; for inhibition at 100 µM: 100 μM compound, read-out: Topo I Inhibition (%) 100 μM
T2 construct: purchased TaKaRa, Kyoto, Japan
T2 sequence (F1MN93 1-767): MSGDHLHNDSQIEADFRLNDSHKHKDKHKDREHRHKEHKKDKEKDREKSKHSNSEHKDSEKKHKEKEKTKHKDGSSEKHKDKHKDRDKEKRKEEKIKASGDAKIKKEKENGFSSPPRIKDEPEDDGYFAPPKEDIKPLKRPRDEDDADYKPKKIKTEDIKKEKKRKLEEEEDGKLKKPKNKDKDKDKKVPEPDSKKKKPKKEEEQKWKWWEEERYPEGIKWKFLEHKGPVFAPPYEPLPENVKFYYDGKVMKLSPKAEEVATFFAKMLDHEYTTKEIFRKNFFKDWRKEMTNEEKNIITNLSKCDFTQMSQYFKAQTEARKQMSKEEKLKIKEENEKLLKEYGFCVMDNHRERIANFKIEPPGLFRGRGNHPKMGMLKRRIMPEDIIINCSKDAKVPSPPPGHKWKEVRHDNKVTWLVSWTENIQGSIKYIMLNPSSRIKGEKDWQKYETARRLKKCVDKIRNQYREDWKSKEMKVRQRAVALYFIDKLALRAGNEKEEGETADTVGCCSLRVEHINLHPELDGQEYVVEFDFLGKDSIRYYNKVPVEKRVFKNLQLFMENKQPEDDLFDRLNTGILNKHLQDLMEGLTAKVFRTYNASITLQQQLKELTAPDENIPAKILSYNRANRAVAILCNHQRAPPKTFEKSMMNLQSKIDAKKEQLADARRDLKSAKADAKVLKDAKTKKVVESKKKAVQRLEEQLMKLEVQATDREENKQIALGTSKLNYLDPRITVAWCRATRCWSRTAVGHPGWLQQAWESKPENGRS
Protocol: The effect of the tested compounds on Topo I and II activities were evaluated by Topo I/II relaxation assays. The reaction products, relaxed DNA could be distinguished from supercoiled DNA by gel electrophoresis and visualized using gel imaging system. The activity of DNA topoisomerase I (TaKaRa, Kyoto, Japan) was determined by measuring the relaxation of supercoiled DNA pBR322 [32]. Camptothecin was used as a positive control. The reaction mixture was prepared according to the manufacture's protocol, and incubated at 37 °C for 30 min. The reactions were terminated by adding dye solution containing 1% SDS, 0.02% bromophenol blue and 50% glycerol. The mixtures were applied to 1% agarose gel and subjected to electrophoresis for 1 h, in 1× TAE buffer (40 mM Tris-acetate, 1 mM EDTA). Gels were stained for 30 min in 60 mL 1× TAE buffer with ethidium bromide (0.5 μg/mL). DNA bands were visualized by transillumination with UV light and then photographed by a Gel Doc XR+ System (BIO-RAD, Hercules, CA, USA).

LO2 cells = experiment: MTT cytotoxicity assay, normal hepatocyte LO2; assay type: cell-based; settings: Homo sapiens, L02, 48 h exposure, normal hepatocyte cell line
Protocol: as §1

T1 sequence (P11388 whole entry): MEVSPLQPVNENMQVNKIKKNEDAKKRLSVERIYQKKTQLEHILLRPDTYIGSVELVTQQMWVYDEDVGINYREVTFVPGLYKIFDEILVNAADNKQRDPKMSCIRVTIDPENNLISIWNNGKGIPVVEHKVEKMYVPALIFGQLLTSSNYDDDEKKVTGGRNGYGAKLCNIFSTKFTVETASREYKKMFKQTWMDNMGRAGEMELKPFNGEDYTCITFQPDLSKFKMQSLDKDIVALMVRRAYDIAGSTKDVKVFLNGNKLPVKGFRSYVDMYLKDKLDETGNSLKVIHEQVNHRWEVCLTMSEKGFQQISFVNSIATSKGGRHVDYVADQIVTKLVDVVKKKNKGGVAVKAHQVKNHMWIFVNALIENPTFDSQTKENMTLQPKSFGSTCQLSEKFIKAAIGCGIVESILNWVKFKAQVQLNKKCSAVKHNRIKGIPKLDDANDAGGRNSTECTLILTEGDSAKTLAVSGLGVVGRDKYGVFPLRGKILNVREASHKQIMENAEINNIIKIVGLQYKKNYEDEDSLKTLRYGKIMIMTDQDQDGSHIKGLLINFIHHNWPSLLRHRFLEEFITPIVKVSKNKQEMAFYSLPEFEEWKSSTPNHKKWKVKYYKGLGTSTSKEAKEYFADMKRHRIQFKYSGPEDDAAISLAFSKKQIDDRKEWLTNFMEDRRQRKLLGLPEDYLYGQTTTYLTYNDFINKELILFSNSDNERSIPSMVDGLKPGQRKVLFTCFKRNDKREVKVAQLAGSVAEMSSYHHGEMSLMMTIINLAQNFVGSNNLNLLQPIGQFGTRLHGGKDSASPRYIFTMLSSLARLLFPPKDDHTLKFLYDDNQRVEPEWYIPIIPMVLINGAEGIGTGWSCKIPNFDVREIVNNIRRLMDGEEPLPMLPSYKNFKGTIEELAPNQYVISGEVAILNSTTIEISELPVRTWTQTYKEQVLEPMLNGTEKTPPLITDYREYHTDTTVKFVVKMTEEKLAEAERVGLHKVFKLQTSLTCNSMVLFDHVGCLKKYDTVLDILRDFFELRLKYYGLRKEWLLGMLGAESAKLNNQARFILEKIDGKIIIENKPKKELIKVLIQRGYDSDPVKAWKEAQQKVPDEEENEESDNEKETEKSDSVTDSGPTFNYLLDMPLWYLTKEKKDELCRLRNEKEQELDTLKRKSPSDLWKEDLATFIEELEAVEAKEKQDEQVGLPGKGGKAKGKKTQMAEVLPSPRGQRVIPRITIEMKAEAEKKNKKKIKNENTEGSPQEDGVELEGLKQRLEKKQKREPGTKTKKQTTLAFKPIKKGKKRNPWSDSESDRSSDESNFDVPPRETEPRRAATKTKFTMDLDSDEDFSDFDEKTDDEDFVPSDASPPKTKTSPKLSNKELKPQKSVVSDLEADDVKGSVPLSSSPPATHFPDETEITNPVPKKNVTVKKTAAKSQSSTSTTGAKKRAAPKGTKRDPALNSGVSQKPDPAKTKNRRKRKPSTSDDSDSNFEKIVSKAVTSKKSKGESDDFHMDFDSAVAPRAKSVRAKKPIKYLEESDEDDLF

Row | SMILES | inhibition at 20 µM (Human Topoisomerase IIα) [%] | inhibition at 100 µM (Human Topoisomerase IIα) [%] | IC50 (HepG2 cells; Homo sapiens, HepG2, 48 h) [µM] | IC50 (SMMC-7721 cells; Homo sapiens, SMMC-7721, 48 h) [µM] | inhibition at 20 µM (DNA topoisomerase I) [%] | inhibition at 100 µM (DNA topoisomerase I) [%] | melting point [°C] | IC50 (LO2 cells) [µM] | IC50 (HepG2 cells) [µM] | IC50 (SMMC-7721 cells) [µM]
1 | Cc1ccc2[nH]c3c(c2c1)C[C@@]1(C)C(CC[C@]2(C)C1CC=C1C4[C@@H](C)[C@H](C)CC[C@]4(C(=O)NCCCN)CC[C@]12C)C3(C)C (stereo partly drawn) [5a, N-(3-Aminopropyl)-5′-methyl-1′H-ursa-2,12-dieno[3,2-b]indol-28-carboxamide] | 31.2 | 72.3 | 2.45 ± 0.38 | 2.02 ± 0.21 | 12.4 | 24.5 | 205 to 207 | 21.3 ± 1.59 |  | 
2 | CCN(CC)CCCNC(=O)[C@]12CC[C@@H](C)[C@H](C)C1C1=CCC3[C@@]4(C)Cc5c([nH]c6ccc(C)cc56)C(C)(C)C4CC[C@@]3(C)[C@]1(C)CC2 (stereo partly drawn) [5c, N-(3-(Diethylamino)propyl)-5′-methyl-1′H-ursa-2,12-dieno[3,2-b]indol-28-carboxamide] | 38.9 | 75.8 | 1.2 ± 0.24 | 1.15 ± 0.14 |  | 0 | 147 to 149 | 15.8 ± 1.06 |  | 
3 | Cc1ccc2[nH]c3c(c2c1)C[C@@]1(C)C(CC[C@]2(C)C1CC=C1C4[C@@H](C)[C@H](C)CC[C@]4(C(=O)NCCCCN4CCOCC4)CC[C@]12C)C3(C)C (stereo partly drawn) [6e, N-(4-Morpholinobutyl)-5′-methyl-1′H-ursa-2,12-dieno[3,2-b]indol-28-carboxamide] | 28.2 | 65.6 | 7.84 ± 2.31 | 4.55 ± 1.56 |  | 0 |  | 35.4 ± 3.13 |  | 
4 | Cc1ccc2[nH]c3c(c2c1)C[C@@]1(C)C(CC[C@]2(C)C1CC=C1C4[C@@H](C)[C@H](C)CC[C@]4(C(=O)NCCCCN4CCN(C)CC4)CC[C@]12C)C3(C)C (stereo partly drawn) [6f, N-(4-(4-Methylpiperazin-1-yl)butyl)-5′-methyl-1′H-ursa-2,12-dieno[3,2-b]indol-28-carboxamide] | 39.8 | 81.8 | ~1 | ~1 |  | 0 |  | 13.7 ± 1.28 | 1.01 ± 0.12 | 0.65 ± 0.07
5 | CC[C@@]1(O)C(=O)OCc2c1cc1n(c2=O)Cc2cc3ccccc3nc2-1 [CPT, camptothecin, reference compound] |  |  | 1.12 ± 0.26 | 0.56 ± 0.18 | 38.2 | 75.1 |  | 8.93 ± 0.52 |  | 
6 | COc1cccc2c1C(=O)c1c(O)c3c(c(O)c1C2=O)C[C@@](O)(C(=O)CO)C[C@@H]3O[C@H]1C[C@H](N)[C@H](O)[C@H](C)O1 [DOX, doxorubicin, reference compound] |  |  | 0.81 ± 0.19 | 0.68 ± 0.11 |  |  |  | 5.32 ± 0.67 |  | 
7 | COc1cc([C@@H]2c3cc4c(cc3[C@@H](O[C@@H]3O[C@@H]5CO[C@@H](C)O[C@H]5[C@H](O)[C@H]3O)[C@H]3COC(=O)[C@H]23)OCO4)cc(OC)c1O [VP-16, etoposide, reference compound] | 47.8 | 88.5 | 0.57 ± 0.16 | 0.36 ± 0.1 |  |  |  | 5.92 ± 0.29 |  | 
